Laboratory results reported in article PMC8198190, “The PFKFB3 Inhibitor AZ67 Inhibits Angiogenesis Independently of Glycolysis Inhibition” (International Journal of Molecular Sciences, 2021).

Target: T1, PFKFB3 (6-phosphofructo-2-kinase/fructose-2,6-bisphosphatase-3) (Homo sapiens, UniProt Q16875)
T1 construct: recombinant human PFKFB3 produced in E. coli
Assay: isothermal titration calorimetry (MicroCal Peaq-ITC, […] °C, triplicate)
Assay type: binding

T1 sequence (Q16875 whole entry): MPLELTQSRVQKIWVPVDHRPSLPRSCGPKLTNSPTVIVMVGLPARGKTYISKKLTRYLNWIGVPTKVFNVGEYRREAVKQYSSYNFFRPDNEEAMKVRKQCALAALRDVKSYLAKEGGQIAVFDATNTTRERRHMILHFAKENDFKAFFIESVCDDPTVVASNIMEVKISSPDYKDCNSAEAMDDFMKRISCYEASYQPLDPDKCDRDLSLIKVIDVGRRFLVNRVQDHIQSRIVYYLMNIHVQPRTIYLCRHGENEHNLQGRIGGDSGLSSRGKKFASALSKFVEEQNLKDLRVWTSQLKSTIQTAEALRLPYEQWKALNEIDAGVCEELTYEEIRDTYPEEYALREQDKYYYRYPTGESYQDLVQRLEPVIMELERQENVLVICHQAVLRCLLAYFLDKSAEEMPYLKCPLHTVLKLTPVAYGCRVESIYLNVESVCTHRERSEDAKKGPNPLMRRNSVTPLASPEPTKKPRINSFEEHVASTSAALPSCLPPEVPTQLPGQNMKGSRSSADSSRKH

`Cc1noc(C)c1Cn1cc(C#N)c2cc(Oc3ccc(NC(=O)[C@@H]4CCCN4)cc3)ccc21` [AZ67] was tested, and the Kd was 168 nM.
